These compounds were tested against Beta-3 Adrenergic Receptor (Homo sapiens (Human), UniProt P13945) (assay: HTRF cAMP antagonist assay (IC50 determination)). Conditions: CHO-K1 cells stably expressing recombinant receptor; antagonism of isoproterenol at EC90; cAMP readout.
Assay type: cell-based
Outline: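 In this functional readout, recombinant CHO-K1 cells received compound, then isoproterenol at its EC90. After 1 h at room temperature, cAMP levels were determined by HTRF using an on-plate standard curve, and IC50 values were fitted.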

Sequence of Beta-3 Adrenergic Receptor (P13945 whole entry, species assumed): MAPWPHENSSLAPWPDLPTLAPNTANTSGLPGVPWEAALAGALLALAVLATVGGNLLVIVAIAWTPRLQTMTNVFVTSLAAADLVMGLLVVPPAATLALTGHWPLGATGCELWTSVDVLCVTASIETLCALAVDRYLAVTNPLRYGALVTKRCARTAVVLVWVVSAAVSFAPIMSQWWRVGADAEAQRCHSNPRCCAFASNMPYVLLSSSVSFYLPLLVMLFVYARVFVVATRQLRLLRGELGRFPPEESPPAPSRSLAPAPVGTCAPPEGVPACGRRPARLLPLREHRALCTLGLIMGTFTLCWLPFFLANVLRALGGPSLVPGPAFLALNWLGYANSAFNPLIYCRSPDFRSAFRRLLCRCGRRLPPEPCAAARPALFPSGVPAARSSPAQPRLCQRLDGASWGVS

IC50 | SMILES
23.6 nM | CS(=O)(=O)c1cccc(OC[C@@H](O)CNC2COC3(CCN(S(=O)(=O)c4cccc(-c5ccccn5)c4)CC3)C2)c1 (stereo partly drawn) [Compound 45, (2S)-1-(3-(methylsulfonyl)phenoxy)-3-(8-(3-(pyridin-2-yl)phenylsulfonyl)-1-oxa-8-azaspiro[4.5]decan-3-ylamino)propan-2-ol]
87 nM | CS(=O)(=O)c1cccc(OC[C@@H](O)CNC2COC3(CCN(S(=O)(=O)c4cccnc4)CC3)C2)c1 (stereo partly drawn) [Compound 46, (2S)-1-(3-(methylsulfonyl)phenoxy)-3-(8-(pyridin-3-ylsulfonyl)-1-oxa-8-azaspiro[4.5]decan-3-ylamino)propan-2-ol]
82.1 nM | CS(=O)(=O)c1cccc(OC[C@@H](O)CNC2COC3(CCN(S(=O)(=O)c4ccccc4)CC3)C2)c1 (stereo partly drawn) [Compound 47, (2S)-1-(3-(methylsulfonyl)phenoxy)-3-(8-(phenylsulfonyl)-1-oxa-8-azaspiro[4.5]decan-3-ylamino)propan-2-ol]
46.1 nM | Cc1cccc(S(=O)(=O)N2CCC3(CC2)CC(NC[C@H](O)COc2cccc(S(C)(=O)=O)c2)CO3)c1 (stereo partly drawn) [Compound 48, (2S)-1-(3-(methylsulfonyl)phenoxy)-3-(8-(m-tolylsulfonyl)-1-oxa-8-azaspiro[4.5]decan-3-ylamino)propan-2-ol]
33.1 nM | COc1cccc(S(=O)(=O)N2CCC3(CC2)CC(NC[C@H](O)COc2cccc(S(C)(=O)=O)c2)CO3)c1 (stereo partly drawn) [Compound 49, (2S)-1-(8-(3-methoxyphenylsulfonyl)-1-oxa-8-azaspiro[4.5]decan-3-ylamino)-3-(3-(methylsulfonyl)phenoxy)propan-2-ol]
42.2 nM | CS(=O)(=O)c1cccc(OC[C@@H](O)CNC2COC3(CCN(S(=O)(=O)c4cccc(C(F)(F)F)c4)CC3)C2)c1 (stereo partly drawn) [Compound 50, (2S)-1-(3-(methylsulfonyl)phenoxy)-3-(8-(3-(trifluoromethyl)phenylsulfonyl)-1-oxa-8-azaspiro[4.5]decan-3-ylamino)propan-2-ol]
17.4 nM | CS(=O)(=O)c1cccc(OC[C@@H](O)CNC2COC3(CCN(S(=O)(=O)c4ccc(-c5ccccc5)s4)CC3)C2)c1 (stereo partly drawn) [Compound 51, (2S)-1-(3-(methylsulfonyl)phenoxy)-3-(8-(5-phenylthiophen-2-ylsulfonyl)-1-oxa-8-azaspiro[4.5]decan-3-ylamino)propan-2-ol]
61.2 nM | Cc1noc(C)c1S(=O)(=O)N1CCC2(CC1)CC(NC[C@H](O)COc1cccc(S(C)(=O)=O)c1)CO2 (stereo partly drawn) [Compound 52, (2S)-1-(8-(3,5-dimethylisoxazol-4-ylsulfonyl)-1-oxa-8-azaspiro[4.5]decan-3-ylamino)-3-(3-(methylsulfonyl)phenoxy)propan-2-ol]
23.9 nM | CS(=O)(=O)c1cccc(OC[C@@H](O)CNC2COC3(CCN(S(=O)(=O)c4ccc5c(c4)NC(=O)CO5)CC3)C2)c1 (stereo partly drawn) [Compound 53, 6-(3-((S)-2-hydroxy-3-(3-(methylsulfonyl)phenoxy)propylamino)-1-oxa-8-azaspiro[4.5]decan-8-ylsulfonyl)-2H-benzo[b][1,4]oxazin-3(4H)-one]
45.9 nM | CS(=O)(=O)c1cccc(OC[C@@H](O)CNC2COC3(CCN(S(=O)(=O)c4cccc(F)c4)CC3)C2)c1 (stereo partly drawn) [Compound 54, (2S)-1-(8-(3-fluorophenylsulfonyl)-1-oxa-8-azaspiro[4.5]decan-3-ylamino)-3-(3-(methylsulfonyl)phenoxy)propan-2-ol]
30.5 nM | CS(=O)(=O)c1cccc(OC[C@@H](O)CNC2COC3(CCN(S(=O)(=O)c4cccc(C#N)c4)CC3)C2)c1 (stereo partly drawn) [Compound 55, 3-(3-((S)-2-hydroxy-3-(3-(methylsulfonyl)phenoxy)propylamino)-1-oxa-8-azaspiro[4.5]decan-8-ylsulfonyl)benzonitrile]
1990 nM | CS(=O)(=O)c1cccc(OC[C@@H](O)CNC2COC3(CCN(C(=O)Cc4csc(N)n4)CC3)C2)c1 (stereo partly drawn) [Compound 56, 2-(2-aminothiazol-4-yl)-1-(3-((S)-2-hydroxy-3-(3-(methylsulfonyl)phenoxy)propylamino)-1-oxa-8-azaspiro[4.5]decan-8-yl)ethanone]
487 nM | CS(=O)(=O)c1cccc(OC[C@@H](O)CNC2COC3(CCN(C(=O)c4ccc5ccccc5c4)CC3)C2)c1 (stereo partly drawn) [Compound 57, (3-((S)-2-hydroxy-3-(3-(methylsulfonyl)phenoxy)propylamino)-1-oxa-8-azaspiro[4.5]decan-8-yl)(naphthalen-2-yl)methanone]
109 nM | CCn1ncc(S(=O)(=O)N2CCC3(CC2)CC(NC[C@H](O)COc2cccc(S(C)(=O)=O)c2)CO3)c1C (stereo partly drawn) [Compound 58, (2S)-1-(8-(1-ethyl-5-methyl-1H-pyrazol-4-ylsulfonyl)-1-oxa-8-azaspiro[4.5]decan-3-ylamino)-3-(3-(methylsulfonyl)phenoxy)propan-2-ol]
12.3 nM | CS(=O)(=O)c1cccc(OC[C@@H](O)CNC2COC3(CCN(S(=O)(=O)c4ccc5c(Cl)cccc5c4)CC3)C2)c1 (stereo partly drawn) [Compound 59, (2S)-1-(8-(5-chloronaphthalen-2-ylsulfonyl)-1-oxa-8-azaspiro[4.5]decan-3-ylamino)-3-(3-(methylsulfonyl)phenoxy)propan-2-ol]
17.4 nM | CS(=O)(=O)c1cccc(OC[C@@H](O)CNC2COC3(CCN(S(=O)(=O)c4cc5ccccc5o4)CC3)C2)c1 (stereo partly drawn) [Compound 60, (2S)-1-(8-(benzofuran-2-ylsulfonyl)-1-oxa-8-azaspiro[4.5]decan-3-ylamino)-3-(3-(methylsulfonyl)phenoxy)propan-2-ol]
29.8 nM | CS(=O)(=O)c1cccc(OC[C@@H](O)CNC2COC3(CCN(S(=O)(=O)c4ccc5occc5c4)CC3)C2)c1 (stereo partly drawn) [Compound 61, (2S)-1-(8-(benzofuran-5-ylsulfonyl)-1-oxa-8-azaspiro[4.5]decan-3-ylamino)-3-(3-(methylsulfonyl)phenoxy)propan-2-ol]
24.5 nM | CS(=O)(=O)c1cccc(OC[C@@H](O)CNC2COC3(CCN(S(=O)(=O)c4ccc5[nH]ccc5c4)CC3)C2)c1 (stereo partly drawn) [Compound 62, (2S)-1-(8-(1H-indol-5-ylsulfonyl)-1-oxa-8-azaspiro[4.5]decan-3-ylamino)-3-(3-(methylsulfonyl)phenoxy)propan-2-ol]
17.2 nM | CS(=O)(=O)c1cccc(OC[C@@H](O)CNC2COC3(CCN(S(=O)(=O)c4cccc(-c5cccnc5)c4)CC3)C2)c1 (stereo partly drawn) [Compound 63, (2S)-1-(3-(methylsulfonyl)phenoxy)-3-(8-(3-(pyridin-3-yl)phenylsulfonyl)-1-oxa-8-azaspiro[4.5]decan-3-ylamino)propan-2-ol]
922 nM | CN1CCOc2cc(C(=O)N3CCC4(CC3)CC(NC[C@H](O)COc3cccc(S(C)(=O)=O)c3)CO4)ccc21 (stereo partly drawn) [Compound 64, (3-((S)-2-hydroxy-3-(3-(methylsulfonyl)phenoxy)propylamino)-1-oxa-8-azaspiro[4.5]decan-8-yl)(4-methyl-3,4-dihydro-2H-benzo[6][1,4]oxazin-7-yl)methanone]
711 nM | CS(=O)(=O)c1cccc(OC[C@@H](O)CNC2COC3(CCN(C(=O)c4cc5ccccc5[nH]4)CC3)C2)c1 (stereo partly drawn) [Compound 65, (3-((S)-2-hydroxy-3-(3-(methylsulfonyl)phenoxy)propylamino)-1-oxa-8-azaspiro[4.5]decan-8-yl)(1H-indol-2-yl)methanone]
982 nM | CS(=O)(=O)c1cccc(OC[C@@H](O)CNC2COC3(CCN(C(=O)c4c[nH]c5ccccc45)CC3)C2)c1 (stereo partly drawn) [Compound 66, (3-((S)-2-hydroxy-3-(3-(methylsulfonyl)phenoxy)propylamino)-1-oxa-8-azaspiro[4.5]decan-8-yl)(1H-indol-3-yl)methanone]
822 nM | CS(=O)(=O)c1cccc(OC[C@@H](O)CNC2COC3(CCN(C(=O)c4ccc5[nH]ccc5c4)CC3)C2)c1 (stereo partly drawn) [Compound 67, (3-((S)-2-hydroxy-3-(3-(methylsulfonyl)phenoxy)propylamino)-1-oxa-8-azaspiro[4.5]decan-8-yl)(1H-indol-5-yl)methanone]
494 nM | CS(=O)(=O)c1cccc(OC[C@@H](O)CNC2COC3(CCN(C(=O)c4ccc5cc[nH]c5c4)CC3)C2)c1 (stereo partly drawn) [Compound 68, (3-((S)-2-hydroxy-3-(3-(methylsulfonyl)phenoxy)propylamino)-1-oxa-8-azaspiro[4.5]decan-8-yl)(1H-indol-6-yl)methanone]
21.2 nM | CS(=O)(=O)c1cccc(OC[C@@H](O)CNC2COC3(CCN(S(=O)(=O)c4cccc(Br)c4)CC3)C2)c1 (stereo partly drawn) [Compound 69, (2S)-1-(8-(3-bromophenylsulfonyl)-1-oxa-8-azaspiro[4.5]decan-3-ylamino)-3-(3-(methylsulfonyl)phenoxy)propan-2-ol]
24.4 nM | CS(=O)(=O)c1cccc(OC[C@@H](O)CNC2COC3(CCN(S(=O)(=O)c4cccc(-c5ccc(N)nc5)c4)CC3)C2)c1 (stereo partly drawn) [Compound 70, (2S)-1-(8-(3-(6-aminopyridin-3-yl)phenylsulfonyl)-1-oxa-8-azaspiro[4.5]decan-3-ylamino)-3-(3-(methylsulfonyl)phenoxy)propan-2-ol]
39 nM | CS(=O)(=O)c1cccc(OC[C@@H](O)CNC2COC3(CCN(S(=O)(=O)c4cccc(-c5cncnc5)c4)CC3)C2)c1 (stereo partly drawn) [Compound 71, (2S)-1-(3-(methylsulfonyl)phenoxy)-3-(8-(3-(pyrimidin-5-yl)phenylsulfonyl)-1-oxa-8-azaspiro[4.5]decan-3-ylamino)propan-2-ol]
329 nM | CS(=O)(=O)c1cccc(OC[C@@H](O)CNC2COC3(CCN(S(=O)(=O)c4ccccn4)CC3)C2)c1 (stereo partly drawn) [Compound 72, (2S)-1-(3-(methylsulfonyl)phenoxy)-3-(8-(pyridin-2-ylsulfonyl)-1-oxa-8-azaspiro[4.5]decan-3-ylamino)propan-2-ol]
23.9 nM | CS(=O)(=O)c1cccc(OC[C@@H](O)CNC2COC3(CCN(S(=O)(=O)c4ccc5cc(Cl)ccc5c4)CC3)C2)c1 (stereo partly drawn) [Compound 73, (2S)-1-(8-(6-chloronaphthalen-2-ylsulfonyl)-1-oxa-8-azaspiro[4.5]decan-3-ylamino)-3-(3-(methylsulfonyl)phenoxy)propan-2-ol]
